{"source": "patent US9212168B2", "about": "(priority 2011, dated 2015)"}
{"tested_on": "HCV genotype 1a replicon", "test": "HCV genotype 1a replicon assay (NS3 protease activity readout)", "format": "cell-based, hepatitis C virus", "conditions": "HCV genotype 1a replicon", "method_in_brief": "(§1)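 Genotype 1a subgenomic replicon cells (APC89, Huh7.5) were treated with compound dose-responses in G418-free medium, 0.5% DMSO final, for 48 or 72 hours at 37° C. Lysate NS3/4a protease activity measured with 15 μM FRET substrate, 20 min at 37° C (ex 340/em 509 nm); EC50 by 4-parameter fit.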"}
{"smiles": "COC(=O)N[C@H](C(=O)N1C[C@@H](C)C[C@H]1c1nc(-c2ccc(-c3ccc(C(=O)Nc4ccc(N5CCN(C(=O)C(C)(C)C)C[C@H]5C)nc4)cc3OC(F)(F)F)cc2)c[nH]1)C(C)C", "note": "[Example 4-36]", "Genotype 1a": "C (C represents pEC50 between and 9 and about 10, (EC50 between 1 nM and 0.1 nM))"}
{"smiles": "CNC(=O)N1CCC[C@@]1(C)C(=O)N1CCN(c2ccc(C(=O)Nc3cc(OC(F)(F)F)c(-c4ccc(-c5c[nH]c([C@@H]6C[C@H](C)CN6C(=O)[C@@H](NC(=O)OC)C(C)C)n5)cc4)cc3F)cn2)[C@H](C)C1", "note": "[Example 1-28]", "Genotype 1a": "D (D represents pEC50>10 (EC50<0.1 nM))"}
{"smiles": "COC(=O)N[C@H](C(=O)N1C[C@@H](C)C[C@H]1c1nc(-c2ccc(-c3cc(Cl)c(NC(=O)c4ccc(N5CCN(C(=O)C(C)(C)C)C[C@H]5C)nc4)cc3C(F)(F)F)cc2)c[nH]1)C1CCCC1", "note": "[Example 19-11]", "Genotype 1a": "D (D represents pEC50>10 (EC50<0.1 nM))"}
{"smiles": "COC(=O)N[C@H](C(=O)N1C[C@@H](C)C[C@H]1c1nc(-c2ccc(-c3cc(Cl)c(NC(=O)c4ccc(N5CCN(C(=O)C6CC6(Cl)Cl)C[C@H]5C)nc4)cc3OC(F)(F)F)cc2)c[nH]1)C(C)C", "note": "(single isomer, unassigned) [Example 1-57]", "Genotype 1a": "D (D represents pEC50>10 (EC50<0.1 nM))"}
{"smiles": "COC(=O)N[C@H](C(=O)N1C[C@H](C)C[C@H]1c1nc(-c2ccc(-c3cc(Cl)c(C(=O)Nc4ccc(N5CCN(C(=O)C(C)(C)C)C[C@H]5C)nc4)cc3OC(F)(F)F)cc2)c[nH]1)C1CCOCC1", "note": "[24-5]", "Genotype 1a": "C (C represents pEC50 between and 9 and about 10, (EC50 between 1 nM and 0.1 nM))"}
{"smiles": "COC(=O)N[C@H](C(=O)N1C[C@@H](OC)C[C@H]1c1nc(-c2ccc(-c3cc(F)c(NC(=O)c4ccc(N5CCN(C(=O)[C@H]6CC6(C)C)C[C@H]5C)nc4)cc3OC(F)(F)F)cc2)c[nH]1)C(C)C", "note": "[Example 27-4]", "Genotype 1a": "D (D represents pEC50>10 (EC50<0.1 nM))"}
{"smiles": "COC(=O)N[C@H](C(=O)N1C[C@@H](O)C[C@H]1c1nc(-c2ccc(-c3cc(F)c(NC(=O)c4ccc(N5CCN(C(=O)C(C)(C)C)C[C@H]5C)nc4)cc3OC(F)(F)F)cc2)c[nH]1)C(C)C", "note": "[Example 26-6]", "Genotype 1a": "C (C represents pEC50 between and 9 and about 10, (EC50 between 1 nM and 0.1 nM))"}
{"smiles": "COC(=O)N[C@H](C(=O)N1C[C@@H](C)C[C@H]1c1nc(-c2ccc(-c3ccc(C(=O)Nc4ccc(N5CCN(C(=O)N(C)C)C[C@H]5C)nc4)cc3OC(F)(F)F)cc2)c[nH]1)C(C)C", "note": "[Example 4-33]", "Genotype 1a": "C (C represents pEC50 between and 9 and about 10, (EC50 between 1 nM and 0.1 nM))"}
{"smiles": "COC(=O)NC(C(=O)N1CC(OC)CC1c1nc(-c2ccc(-c3ccc(NC(=O)c4ccc(N5CCN(C(=O)C(C)(C)CO)CC5C)nc4)cc3OC(F)(F)F)cc2)c[nH]1)C(C)OC", "note": "(stereo not shown) [Example 16-16]", "Genotype 1a": "D (D represents pEC50>10 (EC50<0.1 nM))"}
{"smiles": "COC(=O)N[C@@H](C(=O)N1C[C@@H](C)C[C@H]1c1nc(-c2ccc(-c3cc(Cl)c(NC(=O)c4ccc(N5CCN(C(=O)C(C)(C)CO)C[C@H]5C)nc4)cc3C(F)(F)F)cc2)c[nH]1)C1CCCCC1", "note": "[Example 19-5]", "Genotype 1a": "A (A represents a pEC50 value between 6 and 8 (EC50 between 1 μM and 10 nM))"}
{"smiles": "COC(=O)N[C@H](C(=O)N1C[C@@H](C)C[C@H]1c1nc(-c2ccc(-c3ccc(C(=O)Nc4ccc(N5C[C@H](C)N(C(=O)C(C)(C)NC(=O)C6CC6)C[C@H]5C)nc4)cc3OC(F)(F)F)cc2)c[nH]1)C(C)C", "note": "[Example 4-39]", "Genotype 1a": "C (C represents pEC50 between and 9 and about 10, (EC50 between 1 nM and 0.1 nM))"}
{"smiles": "COC(=O)NC(C(=O)N1CC(OC)CC1c1nc(-c2ccc(-c3cc(Cl)c(NC(=O)c4ccc(N5CCN(C(=O)C(C)(C)CO)CC5C)nc4)cc3OC(F)(F)F)cc2)c[nH]1)C(C)(C)O", "note": "(stereo not shown) [Example 16-9]", "Genotype 1a": "D (D represents pEC50>10 (EC50<0.1 nM))"}
{"smiles": "COC(=O)NC(C(=O)N1CC(OC)CC1c1nc(-c2ccc(-c3cc(Cl)c(NC(=O)c4ccc(N5CCN(C(=O)C(C)(C)CO)CC5C)nc4)cc3OC(F)(F)F)cc2)c[nH]1)C(C)OC", "note": "(stereo not shown) [Example 16-8]", "Genotype 1a": "D (D represents pEC50>10 (EC50<0.1 nM))"}
{"smiles": "COC(=O)NC(C(=O)N1CC(F)CC1c1nc(-c2ccc(-c3cc(Cl)c(NC(=O)c4ccc(N5CCN(C(=O)C(C)(C)C)CC5C)nc4)cc3OC(F)(F)F)cc2)c[nH]1)C(C)C", "note": "(stereo not shown) [Example 29-2]", "Genotype 1a": "C (C represents pEC50 between and 9 and about 10, (EC50 between 1 nM and 0.1 nM))"}
{"smiles": "COC(=O)N[C@H](C(=O)N1C[C@@H](C)C[C@H]1c1nc(-c2ccc(-c3ccc(C(=O)Nc4ccc(N5C[C@H](C)N(C(=O)[C@@H](C)NC(C)=O)C[C@H]5C)nc4)cc3OC(F)(F)F)cc2)c[nH]1)C(C)C", "note": "[Example 4-28]", "Genotype 1a": "D (D represents pEC50>10 (EC50<0.1 nM))"}
{"smiles": "CNC(=O)N1CCC[C@@]1(C)C(=O)N1C[C@@H](C)N(c2ccc(C(=O)Nc3cc(OC(F)(F)F)c(-c4ccc(-c5c[nH]c([C@@H]6C[C@H](C)CN6C(=O)[C@@H](NC(=O)OC)C(C)C)n5)cc4)cc3F)cn2)C[C@@H]1C", "note": "[Example 1-24]", "Genotype 1a": "D (D represents pEC50>10 (EC50<0.1 nM))"}
{"smiles": "COC(=O)N[C@@H](C(=O)N1C[C@@H](C)C[C@H]1c1nc(-c2ccc(-c3cc(Cl)c(NC(=O)c4ccc(N5CCN(C(=O)C(C)(C)C)C[C@H]5C)nc4)cc3C(F)(F)F)cc2)c[nH]1)C1CCCCC1", "note": "[Example 19-3]", "Genotype 1a": "A (A represents a pEC50 value between 6 and 8 (EC50 between 1 μM and 10 nM))"}
{"tested_on": "HCV genotype 1a replicon", "test": "HCV genotype 1a replicon assay (NS3 protease activity readout)", "format": "cell-based, hepatitis C virus", "conditions": "Hepatitis C virus, read-out: Genotype 1a, HCV genotype 1a replicon", "method_in_brief": "as §1", "units": {"EC50": "nM"}}
{"smiles": "COC(=O)N[C@H](C(=O)N1C[C@@H](C)C[C@H]1c1nc(-c2ccc(-c3cc(Cl)c(NC(=O)c4ccc(N5CCN(C(=O)C6CNC6)C[C@H]5C)nc4)cc3OC(F)(F)F)cc2)c[nH]1)C(C)C", "note": "[Example 12-51]", "EC50": "0.1 to 1"}
{"smiles": "COCC1(C(=O)N2CCN(c3ccc(C(=O)Nc4cc(OC(F)(F)F)c(-c5ccc(-c6c[nH]c([C@@H]7C[C@H](C)CN7C(=O)[C@@H](NC(=O)OC)C(C)C)n6)cc5)cc4Cl)cn3)[C@H](C)C2)CCC1", "note": "[Example 12-45]", "EC50": "< 0.1"}
{"smiles": "COC(=O)NC(C(=O)N1C[C@@H](C)C[C@H]1c1nc(-c2ccc(-c3ccc(C(=O)Nc4ccc(N5CCN(C(=O)C(C)(C)C)C[C@H]5C)nc4)c(Cl)c3OC(F)(F)F)cc2)c[nH]1)C(C)C", "note": "(stereo partly shown) [Example 25-4]", "EC50": "0.1 to 1"}
{"smiles": "COC(=O)N[C@H](C(=O)N1CC2(C[C@H]1c1nc(-c3ccc(-c4cc(Cl)c(NC(=O)c5ccc(N6CCN(C(=O)C(C)(C)C)C[C@H]6C)nc5)cc4OC(F)(F)F)cc3)c[nH]1)OCCO2)C(C)C", "note": "[Example 5-11]", "EC50": "< 0.1"}
{"smiles": "C[C@H]1C[C@@H](c2nc(-c3ccc(-c4cc(Cl)c(NC(=O)c5ccc(N6CCN(C(=O)C(C)(C)C)C[C@H]6C)nc5)cc4OC(F)(F)F)cc3)c[nH]2)N(C(=O)C(c2ccccc2)N2CCNCC2)C1", "note": "(stereo partly shown) [Example 13-3]", "EC50": "0.1 to 1"}
{"smiles": "COC[C@H]1C[C@@H](c2nc(-c3ccc(-c4cc(Cl)c(NC(=O)c5ccc(N6CCN(C(=O)C(C)(C)C)C[C@H]6C)nc5)cc4OC(F)(F)F)cc3)c[nH]2)N(C(=O)[C@@H](NC(=O)OC)C(C)C)C1", "note": "[Example 15-13]", "EC50": "< 0.1"}
{"smiles": "COC(=O)N[C@H](C(=O)N1C[C@@H]([S+](C)[O-])C[C@H]1c1nc(-c2ccc(-c3ccc(C(=O)Nc4ccc(N5CCN(C(=O)C(C)(C)C)C[C@H]5C)nc4)cc3OC(F)(F)F)cc2)c[nH]1)C(C)C", "note": "(stereo partly shown) [Example 6-19]", "EC50": "0.1 to 1"}
{"smiles": "COC(=O)NC(C(=O)N1C[C@@H](C)C[C@H]1c1nc(-c2ccc(-c3ccc(C(=O)Nc4ccc(N5CCN(C(=O)C(C)(C)C)C[C@H]5C)nc4)c(F)c3OC(F)(F)F)cc2)c[nH]1)C(C)C", "note": "(stereo partly shown) [Example 25-1]", "EC50": "0.1 to 1"}
{"smiles": "COC(=O)N[C@H](C(=O)N1C[C@@H](C)C[C@H]1c1nc(-c2ccc(-c3cc(F)c(NC(=O)c4ccc(N5CCN(C(=O)C(C)(C)CO)C[C@H]5C)nc4)cc3OC(F)(F)F)cc2)c[nH]1)[C@H](C)OC", "note": "[Example 13-25]", "EC50": "0.1 to 1"}
{"smiles": "CC(C)[C@@H](C(=O)N1C[C@@H](C)C[C@H]1c1nc(-c2ccc(-c3cc(Cl)c(NC(=O)c4ccc(N5CCN(C(=O)C(C)(C)C)C[C@H]5C)nc4)cc3OC(F)(F)F)cc2)c[nH]1)N1CCCCC1", "note": "[Example 13-2]", "EC50": "10 to 1000"}
{"smiles": "COC(=O)N[C@H](C(=O)N1C[C@@H](C)C[C@H]1c1nc(-c2ccc(-c3cc(Cl)c(NC(=O)c4ccc(N5CCN(C(=O)C6CCOCC6)C[C@H]5C)nc4)cc3OC(F)(F)F)cc2)c[nH]1)C(C)C", "note": "[Example 12-27]", "EC50": "0.1 to 1"}
{"smiles": "COCC1(C(=O)N2CCN(c3ccc(C(=O)Nc4cc(OC(F)(F)F)c(-c5ccc(-c6c[nH]c([C@@H]7C[C@H](C)CN7C(=O)[C@@H](NC(=O)OC)C(C)C)n6)cc5)cc4Cl)cn3)[C@H](C)C2)CC1", "note": "[Example 12-44]", "EC50": "< 0.1"}
{"smiles": "COC(=O)N[C@H](C(=O)N1C[C@@H](C)C[C@H]1c1nc(-c2ccc(-c3cc(Cl)c(NC(=O)c4ccc(N5CCN(C(=O)C6CCCN6C(N)=O)C[C@H]5C)nc4)cc3OC(F)(F)F)cc2)c[nH]1)C(C)C", "note": "(stereo partly shown) [Example 12-6]", "EC50": "< 0.1"}
{"smiles": "COC(=O)N[C@H](C(=O)N1C[C@@H](C)C[C@H]1c1nc(-c2ccc(-c3cc(Cl)c(NC(=O)c4ccc(N5CCN(C(=O)N(CCO)CCO)C[C@H]5C)nc4)cc3OC(F)(F)F)cc2)c[nH]1)C(C)C", "note": "[Example 12-16]", "EC50": "0.1 to 1"}
